Tests used:
[1] = system: NPY5R; experiment: Affymetrix canine GeneChip gene expression analysis in canine cell lines, NPY5R; type: cell-based
Description: Gene expression was analyzed using Affymetrix Canine 1 and Canine 2 GeneChip Arrays available commercially from Affymetrix, Inc., Santa Clara, Calif. 95051. Total RNA is reverse transcribed into cDNA. The cDNA is used to generate cRNA which is fragmented and used as probes for GeneChip hybridization. The gene chip is washed and the hybridization signal is measured with an Affymetrix laser scanner. The hybridization data is then validated and normalized for further analysis. Materials: Affymetrix provided most of the reagents and kit. Other reagents listed in the Affymetrix Manual but not supplied in the kit were obtained separately. Refer to GeneChip Expression Analysis Technical Manual (701021 Rev. 4) for the details. Equipment: Eppendorf Microcentrifuge, 1.5 mL DNase and RNase free/sterile microcentrifuge tubes, 50 mL DNase and RNase free/sterile disposable polypropylene tubes, P1000, […] and P2 Rainin Pipetman pipettes, Filter pipette tips for P1000, […] and P2 pipettes, DNase and RNase free/sterile, and Peltier Thermal Cycler PTC-200. Procedure: All procedures followed exactly as described in GeneChip Expression Analysis Technical Manual (Affymetrix Copyright 1999-2003). 5 micrograms of total RNA were used for the first strand cDNA synthesis. Used either Peltier Thermal Cycler PTC-200 or heat block for temperature control on reactions and probe denaturing. The quality control was performed using RNA NanoDrop chips with BioAnalyer 2100. Used 100 Format (Midi Array) for the canine genechip. […] The solvent at the higher of the two concentrations was used as a control. […] Gene expression was measured for the treatment cell lines and controls. The gene expression data was determined to be either “up” or “down”-regulated for any given treatment. The decision on whether a gene is “up” or “down” is based on the fold change, which is calculated as treatment intensity/control intensity for each individual probe.

[2] = system: NPY1R; experiment: Affymetrix canine GeneChip gene expression analysis in canine cell lines, NPY1R; type: cell-based; details: in two cell lines tested, amount tested 0.005 mg/mL, 0.025 mg/mL
Description: Gene expression was analyzed using Affymetrix Canine 1 and Canine 2 GeneChip Arrays available commercially from Affymetrix, Inc., Santa Clara, Calif. 95051. Total RNA is reverse transcribed into cDNA. The cDNA is used to generate cRNA which is fragmented and used as probes for GeneChip hybridization. The gene chip is washed and the hybridization signal is measured with an Affymetrix laser scanner. The hybridization data is then validated and normalized for further analysis.
Materials: Affymetrix provided most of the reagents and kit. Other reagents listed in the Affymetrix Manual but not supplied in the kit were obtained separately. Refer to GeneChip Expression Analysis Technical Manual (701021 Rev. 4) for the details. […]
Affymetrix canine gene chips Canine-1 and Canine-2 are used to determine the effect of various test substances or ingredients on gene expression in four canine cell lines and appropriate controls. […] Gene expression was measured for the treatment cell lines and controls. The gene expression data was determined to be either “up” or “down”-regulated for any given treatment. The decision on whether a gene is “up” or “down” is based on the fold change, which is calculated as treatment intensity/control intensity for each individual probe.

CC/C=C\C/C=C\C/C=C\C/C=C\C/C=C\CCCC(=O)O [EPA]
Fold change ([1]; in two cell lines tested, amount tested 0.005 mg/mL, 0.025 mg/mL): −1.82 (in two cell lines | Fold change [2]: −1.43 (in two cell lines

O=C(O[C@@H]1Cc2c(O)cc(O)cc2O[C@@H]1c1cc(O)c(O)c(O)c1)c1cc(O)c(O)c(O)c1 [Epigallocatechin Gallate, epigallocatechin gallate]
Fold change ([1]; in all cell lines tested, amount tested 20 ng/mL, 80 ng/mL, fold change = treatment intensity/control intensity): −1.33 (in all cell lines

O=c1cc(-c2ccc(O)c(O)c2)oc2cc(O)cc(O)c12 [Luteolin, luteolin]
Fold change ([1]; in two cell lines tested, amount tested 1 uM, 10 uM): 1.56 (in two cell lines tested)

Reference: patent US20130273196A1, “Pet Food Compositions for Inducing a Satiety Response” (HILL'S PET NUTRITION, INC, priority 2010, published 2013)
